Assay: Pharmacokinetics (PK) study in animals
Format: in vivo
Settings: both sexes, dog; beagle dogs, oral, 30 mg/kg, plasma
Experimental: 12 beagle dogs were grouped into two groups (6 beagle dogs per group, half male and half female). The beagle dogs were fasted for more than 12 h before the experiment, and food was provided 4 h after the drug administration on the day of the experiment. Water was not deprived during the experiment. The crystal form of compound A and the solid dispersion of compound A, respectively (the ratio of compound A to hydroxypropyl methylcellulose acetate succinate was 1:1, according to the formulation of Experimental Example 3), were administered orally to the two groups of animals with an administration dose of 30 mg/kg. 0.6 mL of blood was taken from climb veins before administration and 0.25, 0.5, 1.0, 2.0, 4.0, 6.0, 8.0, 12, 24 and 72 h after administration. The blood was stored in an ethylenediaminetetraacetic acid (EDTA) anticoagulant tube, and centrifuged for 10 minutes at 3500 rpm (4° C.) to separate the blood plasma. The plasma was stored at −70° C.
The concentration of API in the blood plasma and the administrated solution was determined by liquid chromatography-tandem mass spectrometry (LC/MS/MS). The pharmacokinetic parameters of beagle dogs after drug administration were calculated with the resulting plasma concentration using the non-compartmental model of Phoenix WinNonlin 6.4 software.

## CC#CC(=O)N1CC[C@@H](n2cc(-c3ccc(Oc4c(F)cccc4F)cc3)c3c(N)n[nH]c(=O)c32)C1 [Crystal form of compound A, (R)-4-amino-1-(1-(but-2-ynoyl)pyrrolidin-3-yl)-3-(4-(2,6-difluorophenoxy)phenyl)-1,6-dihydro-7H-pyrrolo[2,3-d]pyridazin-7-one]
  AUC(0-inf): 3870 ± 3170 ng·h/mL
  Cmax: 630 ± 530 ng/mL
  half-life: 3.02 ± 0.65 h

Reference: US11304945B2, “Pharmaceutical composition and method for preparing same” (Jiangsu Hengrui Medicine Co., Ltd., priority 2017, dated 2022)
